*1 amine or outer side, *2 acyl side, *3 side chain or, on linkers, in order; H or OH if unused. Where a SMILES comes first, the peptide text is derived from it. Bridges are numbered along the chain shown (N, C = ends). [ ]: non-standard residue; d: D form. The star is where a group is joined. hPhe(3-Cl-4-CF3) = N[C@@H](CCc1ccc(C(F)(F)F)c(Cl)c1)C(=O)O; X4 = CCCN([C@@H](COCCC(C)C)C(=O)[*:2])[*:1]; NMeGly(cPent) = CN[C@H](C(=O)O)C1CCCC1; NMeD = CN[C@@H](CC(=O)O)C(=O)O; NMeL = CN[C@@H](CC(C)C)C(=O)O; Morpholide = C1CN(*)CCO1; NMeA = CN[C@@H](C)C(=O)O; Aze = O=C(O)[C@@H]1CCN1; Ac4c = NC1(C(=O)O)CCC1; Sar = CNCC(=O)O
What was measured:
[1] = target: GDP-bound NRAS wild-type protein (Homo sapiens, UniProt P01111); experiment: Binding to NRAS by surface plasmon resonance (SPR), Single Cycle Kinetics; settings: KD ratio, GDP-bound NRAS wild-type vs GDP-bound KRAS wild-type, SPR
[2] = target: GDP-bound HRAS wild-type protein (Homo sapiens, UniProt P01112); experiment: Binding to HRAS by surface plasmon resonance (SPR), Single Cycle Kinetics; settings: KD ratio, GDP-bound HRAS wild-type vs GDP-bound KRAS wild-type, SPR
Sequence of GDP-bound HRAS wild-type protein (P01112 whole entry): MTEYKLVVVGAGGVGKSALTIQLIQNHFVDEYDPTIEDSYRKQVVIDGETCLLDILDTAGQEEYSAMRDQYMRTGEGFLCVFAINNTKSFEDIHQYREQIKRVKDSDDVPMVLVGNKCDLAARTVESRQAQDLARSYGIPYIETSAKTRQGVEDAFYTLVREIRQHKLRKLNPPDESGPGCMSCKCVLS

Sequence of GDP-bound NRAS wild-type protein (P01111 whole entry): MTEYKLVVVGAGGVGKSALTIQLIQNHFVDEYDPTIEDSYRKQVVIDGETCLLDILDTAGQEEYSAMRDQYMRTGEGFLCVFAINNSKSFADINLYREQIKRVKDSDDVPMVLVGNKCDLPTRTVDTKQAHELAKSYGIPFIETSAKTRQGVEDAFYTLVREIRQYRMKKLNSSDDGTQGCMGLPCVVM

Structure (SMILES)	NRAS/KRAS (ratio of KD value for NRAS to KD value for KRAS) [1]	HRAS/KRAS (ratio of KD value for HRAS to KD value for KRAS) [2]
CCCN1C(=O)[C@@H]2CCN2C(=O)[C@H](C)N(C)C(=O)[C@H]([C@@H](C)CC)NC(=O)[C@H](CC(C)C)N(C)C(=O)C[C@@H](C(=O)N2CCOCC2)N(C)C(=O)[C@H](C2CCCC2)N(C)C(=O)C2(CCC2)NC(=O)[C@@H]2CCCN2C(=O)[C@H](CCc2ccc(C(F)(F)F)c(Cl)c2)NC(=O)CN(C)C(=O)[C@@H]1COCCC(C)C [PP1819] ([NMeL]I[NMeA][Aze][X4][Sar][hPhe(3-Cl-4-CF3)]P[Ac4c][NMeGly(cPent)][NMeD]-Morpholide; lactam N-11)	C (A compound having a KD ratio of 0.1 or more and less than 3 is denoted as C)	C (A compound having a KD ratio of 0.1 or more and less than 3 is denoted as C)
CCO[C@@H]1C[C@H]2C(=O)NC3(CCC3)C(=O)N(C)[C@@H](C3CCCC3)C(=O)N(C)[C@H](C(=O)N(C)C)CC(=O)N(C)[C@@H](CC)C(=O)N[C@@H]([C@@H](C)CC)C(=O)N(C)CC(=O)N(C)[C@H]3C/C=C\CCN(C3=O)[C@@H](Cc3ccc(C(F)(F)F)cc3)C(=O)N(C)CC(=O)N[C@@H](CCc3cc(C)c(Cl)c(C)c3)C(=O)N2C1 [PP1821]	A (a compound having 10 or more and less than 20 is denoted as A)	A (a compound having 10 or more and less than 20 is denoted as A)
CC[C@H](C)[C@@H]1NC(=O)[C@H](CC)N(C)C(=O)C[C@@H](C(=O)N(C)C)N(C)C(=O)[C@H](C2CCCC2)N(C)C(=O)C2(CCC2)NC(=O)[C@@H]2CCCN2C(=O)[C@H](CCc2cc(C)c(Cl)c(C)c2)NC(=O)CN(C)C(=O)[C@H](Cc2ccc(C(F)(F)F)cc2)N2CC/C=C\C[C@@H](C2=O)N(C)C(=O)CN(C)C1=O [PP1822]	A (a compound having 10 or more and less than 20 is denoted as A)	B (a compound having 3 or more and less than 10 is denoted as B)
CCO[C@@H]1C[C@H]2C(=O)NC3(CCCC3)C(=O)N(C)[C@@H](C3CCCC3)C(=O)N(C)[C@H](C(=O)N(C)C)CC(=O)N(C)[C@@H](CC)C(=O)N[C@@H]([C@@H](C)CC)C(=O)N(C)CC(=O)N(C)[C@H]3C/C=C\CCN(C3=O)[C@@H](Cc3ccc(C(F)(F)F)cc3)C(=O)N(C)CC(=O)N[C@@H](CCc3cc(C)c(Cl)c(C)c3)C(=O)N2C1 [PP1823]	A (a compound having 10 or more and less than 20 is denoted as A)	A (a compound having 10 or more and less than 20 is denoted as A)
CCCN1C(=O)C[C@@H](C(=O)N(C)C)N(C)C(=O)[C@H](C2CCCC2)N(C)C(=O)C2(CCC2)NC(=O)[C@@H]2C[C@@H](OCC)CN2C(=O)[C@H](CCc2cc(F)c(C(F)(F)F)c(F)c2)NC(=O)CN(C)C(=O)[C@H](Cc2ccc(C(F)(F)F)cc2)N2CC/C=C\C[C@@H](C2=O)N(C)C(=O)CN(C)C(=O)[C@H]([C@@H](C)CC)NC(=O)[C@@H]1CC(C)C [PP1825]	A (a compound having 10 or more and less than 20 is denoted as A)	A (a compound having 10 or more and less than 20 is denoted as A)
CCCN1C(=O)C[C@@H](C(=O)N(C)C)N(C)C(=O)[C@H](C2CCCC2)N(C)C(=O)C2(CCC2)NC(=O)[C@@H]2C[C@@H](OCC)CN2C(=O)[C@H](CCc2cc(F)c(C(F)(F)F)c(F)c2)NC(=O)CN(C)C(=O)[C@H](Cc2ccc(C(F)(F)F)cc2)N2CC/C=C\C[C@@H](C2=O)N(C)C(=O)CNC(=O)[C@H]([C@@H](C)CC)NC(=O)[C@@H]1CC(C)C [PP1826]	A (a compound having 10 or more and less than 20 is denoted as A)	A (a compound having 10 or more and less than 20 is denoted as A)
CCO[C@@H]1C[C@H]2C(=O)NC3(CCC3)C(=O)N(C)[C@@H](C3CCCC3)C(=O)N(C)[C@H](C(=O)N(C)CC)CC(=O)N(C)[C@H]3CCCC/C=C/c4ccc(cc4)C[C@@H](C(=O)N(C)CC(=O)N[C@@H](CCc4cc(F)c(C(F)(F)F)c(F)c4)C(=O)N2C1)N1CC/C=C\C[C@@H](C1=O)N(C)C(=O)CN(C)C(=O)[C@H]([C@@H](C)CC)NC3=O [PP1827, (1S,7S,11R,13S,19S,22S,26S,29S,35S,37Z,47E)-19-cyclopentyl-7-[2-[3,5-difluoro-4-(trifluoromethyl)phenyl]ethyl]-11-ethoxy-N-ethyl-N,3,18,21,25,31,34-heptamethyl-29-[(1S)-1-methylpropyl]-2,5,8,14,17,20,24,27,30,33,55-undecaoxo-spiro[3,6,9,15,18,21,25,28,31,34,41-undecazapentacyclo[24.15.11.2^43,46.1^35,41.0^9,13]pentapentaconta-37,43(54),44,46(53),47-pentaene-16,1′-cyclobutane]-22-carboxamide]	A (a compound having 10 or more and less than 20 is denoted as A)	A (a compound having 10 or more and less than 20 is denoted as A)
CCO[C@@H]1C[C@H]2C(=O)NC3(CC(C)(C)C3)C(=O)N(C)[C@@H](C3CCCC3)C(=O)N(C)[C@H](C(=O)N(C)CC)CC(=O)N(C)[C@H]3CCCC/C=C/c4ccc(cc4)C[C@@H](C(=O)N(C)CC(=O)N[C@@H](CCc4cc(F)c(C(F)(F)F)c(F)c4)C(=O)N2C1)N1CC/C=C\C[C@@H](C1=O)N(C)C(=O)CN(C)C(=O)[C@H]([C@@H](C)CC)NC3=O [PP1829]	A (a compound having 10 or more and less than 20 is denoted as A)	B (a compound having 3 or more and less than 10 is denoted as B)
CCO[C@@H]1C[C@H]2C(=O)NC3(CC(C)(C)C3)C(=O)N(C)[C@@H](C3CCCC3)C(=O)N(C)[C@H](C(=O)N(C)CC)CC(=O)N(C)[C@H]3CCCC/C=C/c4ccc(cc4)C[C@@H](C(=O)N(C)CC(=O)N[C@@H](CCc4ccc(C(F)(F)F)c(OC)c4)C(=O)N2C1)N1CC/C=C\C[C@@H](C1=O)N(C)C(=O)CN(C)C(=O)[C@H]([C@@H](C)CC)NC3=O [PP1830, (1S,7S,11R,13S,19S,22S,26S,29S,35S,37Z,47E)-19-cyclopentyl-11-ethoxy-N-ethyl-7-[2-[3-methoxy-4-(trifluoromethyl)phenyl]ethyl]-N,3,3′,3′,18,21,25,31,34-nonamethyl-29-[(1S)-1-methylpropyl]-2,5,8,14,17,20,24,27,30,33,55-undecaoxo-spiro[3,6,9,15,18,21,25,28,31,34,41-undecazapentacyclo[24.15.11.2^43,46.1^35,41.0^9,13]pentapentaconta-37,43(54),44,46(53),47-pentaene-16,1′-cyclobutane]-22-carboxamide]	A (a compound having 10 or more and less than 20 is denoted as A)	B (a compound having 3 or more and less than 10 is denoted as B)
CCO[C@@H]1C[C@H]2C(=O)NC3(CC(C)(C)C3)C(=O)N(C)[C@@H](C3CCCC3)C(=O)N(C)[C@H](C(=O)N(C)C)CC(=O)N(C)[C@H]3CCCC/C=C/c4ccc(cc4)C[C@@H](C(=O)N(C)CC(=O)N[C@@H](CCc4cc(F)c(C(F)(F)F)c(F)c4)C(=O)N2C1)N1CC/C=C\C[C@@H](C1=O)N(C)C(=O)CN(C)C(=O)[C@H]([C@@H](C)CC)NC3=O [PP1831]	A (a compound having 10 or more and less than 20 is denoted as A)	A (a compound having 10 or more and less than 20 is denoted as A)
CCO[C@@H]1C[C@H]2C(=O)NC3(CC(C)(C)C3)C(=O)N(C)[C@@H](C3CCCC3)C(=O)N(C)[C@H](C(=O)N(C)C)CC(=O)N(C)[C@H]3CCCC/C=C/c4ccc(cc4)C[C@@H](C(=O)N(C)CC(=O)N[C@@H](CCc4ccc(C(F)(F)F)c(OC)c4)C(=O)N2C1)N1CC/C=C\C[C@@H](C1=O)N(C)C(=O)CN(C)C(=O)[C@H]([C@@H](C)CC)NC3=O [PP1832]	B (a compound having 3 or more and less than 10 is denoted as B)	B (a compound having 3 or more and less than 10 is denoted as B)
CCO[C@@H]1C[C@H]2C(=O)NC3(CCC3)C(=O)N(C)[C@@H](C3CCCC3)C(=O)N(C)[C@H](C(=O)N(C)CC)CC(=O)N(C)[C@H]3CCC/C=C/c4ccc(cc4)C[C@@H](C(=O)N(C)CC(=O)N[C@@H](CCc4ccc(C(F)(F)F)c(OC)c4)C(=O)N2C1)N1CC/C=C\C[C@@H](C1=O)N(C)C(=O)CN(C)C(=O)[C@H]([C@@H](C)CC)NC3=O [PP1834]	A (a compound having 10 or more and less than 20 is denoted as A)	B (a compound having 3 or more and less than 10 is denoted as B)
CCO[C@@H]1C[C@H]2C(=O)NC3(CC(C)(C)C3)C(=O)N(C)[C@@H](C3CCCC3)C(=O)N(C)[C@H](C(=O)N(C)CC)CC(=O)N(C)[C@H]3CCC/C=C/c4ccc(cc4)C[C@@H](C(=O)N(C)CC(=O)N[C@@H](CCc4cc(F)c(C(F)(F)F)c(F)c4)C(=O)N2C1)N1CC/C=C\C[C@@H](C1=O)N(C)C(=O)CN(C)C(=O)[C@H]([C@@H](C)CC)NC3=O [PP1835]	A (a compound having 10 or more and less than 20 is denoted as A)	B (a compound having 3 or more and less than 10 is denoted as B)
CC[C@H](C)[C@@H]1NC(=O)[C@H](CC)N(C)C(=O)C[C@@H](C(=O)N(C)C)N(C)C(=O)[C@H](C2CCCC2)N(C)C(=O)C2(CC(C)(C)C2)NC(=O)[C@@H]2C[C@H](C)CN2C(=O)[C@H](CCc2ccc(C(F)(F)F)c(OC)c2)NC(=O)CN(C)C(=O)[C@H](Cc2ccc(C)cc2)N2CC/C=C\C[C@@H](C2=O)N(C)C(=O)CN(C)C1=O [PP1836]	A (a compound having 10 or more and less than 20 is denoted as A)	B (a compound having 3 or more and less than 10 is denoted as B)

Reference: patent US20250230193A1, “CYCLIC COMPOUND HAVING SELECTIVE KRAS INHIBITORY EFFECT ON HRAS AND NRAS” (CHUGAI SEIYAKU KABUSHIKI KAISHA, priority 2022, published 2025)
